≈ marks a conversion by molar mass, not a printed value.

The solubility is the concentration that dissolves in the medium under given conditions.

The data set is described as follows: Water solubility. Type of data set: physicochemical.

`COC(=O)c1ccc2c(c1)NC(=O)/C2=C(\Nc1ccc(N(C)C(=O)CN2CCN(C)CC2)cc1)c1ccccc1` [free base of nintedanib, 3-Z-[1-(4-(N-((4-methyl-piperazin-1-yl)-methylcarbonyl)-N-methyl-amino)-anilino)-1-phenyl-methylene]-6-methoxycarbonyl-2-indolinone]: the “solubility in water” value is “very poor”.
Molecule `COC(=O)c1ccc2c(c1)NC(=O)/C2=C(\Nc1ccc(N(C)C(=O)CN2CCN(C)CC2)cc1)c1ccccc1` [nintedanib esylate] showed a solubility of 2800 µg/mL (≈ 5.19 mM).

(Values after patent publication US20240058264A1, “PHARMACEUTICAL FORMULATIONS OF NINTEDANIB FOR INTRAOCULAR USE” (Boehringer Ingelheim International GmbH, priority 2022, published 2024).)
